Experimental data: PMC5500990 (European Journal of Medicinal Chemistry, 2017)
Read-outs that look alike come from different tables or passages of the source. Where a SMILES comes first, the peptide text is derived from it. Where no end group is shown, it is not given here. [ ]: non-standard residue; d: D form. dTrp(1-Bu) = CCCCn1cc(C[C@@H](N)C(=O)O)c2ccccc21; dNMeF = CN[C@H](Cc1ccccc1)C(=O)O

Legend:
[1] = test system: serine protease; conditions: cited from earlier work
[2] = test system: DMS79 cells; experiment: Cell viability assay using resazurin dye, DMS79 cells; assay type: cell-based, human; conditions: for IC50: 48 h
Experimental: (§1) Cell viability was evaluated by treating H69 and DMS79 cells with peptides 13–20 in the 0.1–30 μM range for 48 h, with subsequent use of the resazurin dye cell viability assay. IC50 values (Table 1) for all the peptides were derived from the dose response curves (Fig. S24). Table 1 also presents the IC50 values obtained for 1 and 2 previously. RPMI-1640 (with L-glutamine and NaHCO3) was obtained from Sigma-Aldrich. Heat Inactivated Fetal Bovine Serum (FBS) was obtained from Life Technologies. H69 and DMS79 SCLC cell lines were obtained from as previously stated. Cells were grown in 10% v/v FBS/RPMI-1640 (complete medium) and incubated at 37 °C in humidified air atmosphere of 5% CO2. Both, H69 and DMS79 cells are suspension cells and grow in aggregates. For the experimental part, cells were re-suspended in fresh complete medium. Dulbecco's PBS (without calcium chloride and magnesium chloride) and Resazurin sodium salt were obtained from Sigma-Aldrich. The peptide concentrations were calculated accurately using UV/VIS Spectrometer Perkin Elmer instrument and dilution of the stock concentration was made using 50% v/v FBS/sterile saline. Concentrations prepared were ranged from 0.6 to 0.002 mM. Cells were seeded in 96-well plates at a seeding density of 1 × 10^4 cells/190 μl/well in triplicates. Peptides were then added on the same day and incubated as the above conditions stated in Section 5.1. The amount of peptide solution added into each well was 10 μl, resulting in a final well concentration of 30 to 0.1 μM. Untreated control samples were also prepared. Samples for background fluorescence for the resazurin dye were also prepared using only complete medium. After 48 h incubation, resazurin dye (20 μl; 0.125 mg/ml in PBS) was added to each well and incubated as the above conditions stated in Section 5.1 for 5 h. Then, fluorescence readings were recorded using a Tecan Safire plate reader and % viability calculated. Assays were repeated three independent times. Graphs were generated using GraphPad Prism 7.00 software.

[3] = Stability in neat mouse plasma (RP-HPLC); assay type: in vitro ADME; conditions: 37 °C
Source text: When optimising for functional activity there is also a need to assess whether the desired modification will negatively affect the stability of the peptide. Characterisation of the metabolism of peptides is useful to improve their stability in vivo. The finding that a carboxylic acid group, instead of the usual amide, at the C-terminus inactivates the cytotoxicity of 16 (results of 20 - Table 1) may compromise its use in vivo as protein de-amidation reactions are widespread in plasma. Peptides 16 and 19, being the most cytotoxic peptides, were exposed to the conditions of in vitro metabolism in plasma. Peptide 20 lacking the amide group was used as a control. Peptides 16, 19 and 20 were incubated in neat mouse plasma at 37 °C for 48 h. Peptide 2, previously tested over a shorter incubation time, was included for benchmarking purpose.
Peptides were added to neat mouse plasma at a concentration of 400 μg/ml and incubated as the above conditions stated in Section 5.1. Aliquots (20 μl) were taken at 0, 3, 24 and 48 h. To the 20 μl sample, 80 μl of solution B was added and left for 5 min, prior to 1 min sonication to precipitate plasma proteins. The sample was then centrifuged for 5 min at full speed. Then 80 μl of the supernatant was added to 120 μl of solution A and transferred into a HPLC microvial to be analysed using the C8 column. A linear gradient elution was made starting with 100% of solution A and ending after 30 mins with 100% of solution B, with a flow rate of 1 ml/min and followed at λmax 220 nm. The injection volume was 36 μl. Assays were repeated three independent times. HPLC microvials at 0 and 48 h were characterised by ESIMS using the instrument stated in Section 4.1.

[4] = test system: H69 cells; experiment: Cell viability assay using resazurin dye, H69 cells; assay type: cell-based, human; conditions: for IC50: 48 h; for fold enhancement in cytotoxicity compared to tert-Prenyl^4th-NH2 (2): H69 cell line
Experimental: as §1

[5] = Stability in S9 liver fraction from mouse with cofactors; assay type: in vitro ADME; conditions: period of 3 h
Experimental: Peptides 16 and 19 were further subjected to the S9 liver fraction from mouse in the presence of cofactors for a period of 3 h. This would give further insight into the stability of the peptides towards Phase I and Phase II metabolising enzymes.
Eppendorf® tubes were used for sample preparations. Chemicals, HPLC microvials, S9 liver fraction (from mouse (CD-1), male, 20 mg/ml protein basis, vial of 1.0 mL) and co-factors: beta-nictoinamide adenine dinucleotide disodium salt hydrate (NADPH), uridine 5’-diphosphoglucuronic acid trisodium salt (UDPGA), L-glutathione (GSH) and adenosine 3’-phosphate 5’-phosphosulfate lithium salt hydrate (PAPS) were obtained from Sigma-Aldrich. RP-HPLC analysis was performed using the instrument, C8 column and solutions (A and B) stated in Section 4.2.
The preparation and analysis of the samples for peptides stability in the S9 liver fraction from mouse was similar to that for the mouse plasma studies, except that addition of cofactors for enzymes activation was required and the aliquots were taken at 0, 1, 2 and 3 h. The cofactors were added to initiate the study as previously described. Briefly, stock concentrations of NADPH (40 mM), UDPGA (20 mM), GSH (2 mM) and PAPS (2 mg/ml) were prepared using Tris buffer (200 mM) (pH 7.4) containing 2 mM magnesium chloride. […]

[6] = test system: DMS79 cells; experiment: Annexin V conjugate / SYTOX Blue flow cytometric analysis of apoptosis; assay type: cell-based, human; conditions: 24 h, n = 3
Experimental: The novel potent N^ind-butylated peptide, 16, and its unmodified version 1 [26] were incubated for 24 h with DMS79 cells and double stained using Annexin V Fluor® 555 (AnnV) conjugate and SYTOX® Blue (SyB) dead cell stain [29], [32]. The former stain binds to phosphatidyl serine (PS) residues that become exposed at the outer surface of the plasma membrane of cells undergoing apoptosis. DMS79 cell line was selected as a variant cell line model more resistant to chemotherapy since it is established from a SCLC patient treated with three different chemotherapeutics and radiation therapy. Peptide 16 was the most cytotoxic against this cell line (Table 1).
Quantitative assessment of apoptosis was evaluated at low (2 μM) and high (6 μM) peptide concentrations using flow cytometry. A bar-chart (Fig. 6) presents the levels of cells classified into four stages; live cells (AnnV-/SyB-), early apoptotic cells (AnnV+/SyB-), late apoptotic cells (AnnV+/SyB+) and necrotic cells (AnnV-/SyB+). Dot blots are presented in the SD (Fig. S37). […] In contrast, the singly butylated peptide (16) caused highly significant (P < 0.0005) apoptosis in a concentration dependent manner. Even at a low concentration of peptide (2 μM), a small increase (P < 0.05) of early apoptotic cells was observed relative to the control sample.
The experiment was performed according to manufacturer's instructions. Briefly, DMS79 cells were seeded in 12-well plates at a seeding density of 1 × 10^5 cells/well/1980 μl complete medium. Negative control (untreated), peptides at final well concentrations of 2 and 6 μM were prepared and incubated as the above conditions stated in Section 5.1 for 24 h (total volume of wells was 2 ml). The contents of the wells were then carefully transferred into Eppendorf® tubes and centrifuged for 5 min at 500 rpm and the media discarded. Cells pellets were washed with cold PBS. Cells were gently re-suspended in 100 μl annexin-binding buffer followed by the addition of 5 μl of the Annexin V conjugate (Alexa Fluor® 555) and 0.5 μl of dead cell stain (SYTOX® Blue). Tubes were left for 10 min at RT, then 400 μl of annexin-binding buffer were added and samples were analysed on a flow cytometer (BD Biosciences - LSR Fortessa; Diva 8.0.1 software; Annexin V conjugate was excited with 561 nm laser and fluorescence measured using a 586/15 nm bandpass filter; dead cell stain was excited with 405 nm laser and fluorescence measured using 450/50 nm bandpass filter). Assays were repeated three independent times.

[7] = test system: H69 and DMS79 cells; parameters: method as in PMID 30108771; conditions: range over both cell lines; read-out: IC50 values in the range against H69 and DMS79; cited from earlier work
[8] = test system: DMS79 cells; parameters: method as in PMID 30108771; conditions: treatment for 48 h; obtained previously; read-out: IC50 ± SE, DMS79 Cells; cited from earlier work
[9] = test system: H69 cells; parameters: method as in PMID 30108771; conditions: treatment for 48 h; obtained previously; read-out: IC50 ± SE, H69 Cells; cited from earlier work
[10] = S9 liver fraction (from mouse (CD-1), male, 20 mg/ml protein basis) with cofactors NADPH, UDPGA, GSH and PAPS; conditions: up to 3 h
[11] = neat mouse plasma; conditions: 37 °C, up to 48 h

| Compound | IC50 [2] [nM] | fold enhancement in cytotoxicity compared to tert-Prenyl^4th-NH2 (2) ([2]; DMS79 cell line) [fold] | % (± SE) of parent peptide to degradation product(s) in plasma studies ([3]; 0 hr, n = 3) [%] | % (± SE) of parent peptide to degradation product(s) in plasma studies ([3]; 3 hrs, n = 3) [%] | % (± SE) of parent peptide to degradation product(s) in plasma studies ([3]; 24 hrs, n = 3) [%] | % (± SE) of parent peptide to degradation product(s) in plasma studies ([3]; 24 hrs, n = 3, 1440 min) [%] | % (± SE) of parent peptide to degradation product(s) in plasma studies ([3]; 48 hrs, n = 3) [%] | IC50 [4] [nM] | fold enhancement in cytotoxicity compared to tert-Prenyl^4th-NH2 (2) [4] [fold] | stability in S9 liver fraction (in words) [5] | other results |
| --- | --- | --- | --- | --- | --- | --- | --- | --- | --- | --- | --- |
| [dR]PKP[dF]Q[dW]F[dW]LL-NH2 | – | – | – | – | – | – | – | – | – | – | cleaved bond [1]: Leu-NH2, major |
| CCCCn1cc(C[C@@H](NC(=O)[C@H](Cc2ccccc2)NC(=O)[C@@H](Cc2cn(CCCC)c3ccccc23)NC(=O)[C@@H](Cc2ccccc2)NC)C(=O)N[C@@H](CC(C)C)C(N)=O)c2ccccc21 [Peptide 19] (H-[dNMeF][dTrp(1-Bu)]F[dTrp(1-Bu)]L-NH2) | 2310 ± 120 | ~2 | 100 | 98.67 ± 0.69 | > 80 | 89.73 ± 0.68 | 81 | 630 ± 50 | ~4.5 | completely stable | fold reduction in potency/cytotoxicity compared to 16 ([2]; DMS79 cell line): ~1.6 fold; % (± SE) of parent peptide to degradation product(s) in plasma studies ([3]; 48 hrs, n = 3, 2880 min): 81.00 ± 2.25% |
| CN[C@H](Cc1ccccc1)C(=O)N[C@H](Cc1c[nH]c2ccccc12)C(=O)N[C@@H](Cc1ccccc1)C(=O)N[C@H](Cc1c[nH]c2ccccc12)C(=O)N[C@@H](CC(C)C)C(N)=O [Peptide 1, DMePhe-DTrp-Phe-DTrp-Leu-NH2] (H-[dNMeF][dW]F[dW]L-NH2; N-terminus assumed) | – | – | – | – | – | – | – | – | – | – | % events, early apoptotic cells (AnnV+/SyB-) ([6]; DMS79, 2 μM): 6.2%; % events, late apoptotic cells (AnnV+/SyB+) ([6]; DMS79, 2 μM): 23.9%; % events, live cells (AnnV-/SyB-) ([6]; DMS79, 2 μM): 67.6%; % events, necrotic cells (AnnV-/SyB+) ([6]; DMS79, 2 μM): 2.3%; % events, early apoptotic cells (AnnV+/SyB-) ([6]; DMS79, 6 μM): 6.6%; % events, late apoptotic cells (AnnV+/SyB+) ([6]; DMS79, 6 μM): 22.9%; % events, live cells (AnnV-/SyB-) ([6]; DMS79, 6 μM): 68.3%; % events, necrotic cells (AnnV-/SyB+) ([6]; DMS79, 6 μM): 2.2%; IC50 [7]: 23000 to 31000 nM |
| [Arg^6,D-Trp^7,9,MePhe^8]SP (6–11) [SPG] | – | – | – | – | – | – | – | – | – | – | IC50 [8]: > 30000 nM; IC50 [9]: > 30000 nM |
| DMePhe-DTrp-Phe-DTrp(N-butyl)-Leu-NH2 (H-[dNMeF][dW]F[dTrp(1-Bu)]L-NH2; SMILES CCCCn1cc(C[C@@H](NC(=O)[C@H](Cc2ccccc2)NC(=O)[C@@H](Cc2c[nH]c3ccccc23)NC(=O)[C@@H](Cc2ccccc2)NC)C(=O)N[C@@H](CC(C)C)C(N)=O)c2ccccc21) | – | – | – | – | – | – | – | – | – | – | not cleaved [10]: completely stable in S9 liver fraction (3 h); cleaved bond [11]: Leu-NH2, 3 hrs |
| CCCCn1cc(C[C@@H](NC(=O)[C@H](Cc2ccccc2)NC(=O)[C@@H](Cc2c[nH]c3ccccc23)NC(=O)[C@@H](Cc2ccccc2)NC)C(=O)N[C@@H](CC(C)C)C(N)=O)c2ccccc21 [Peptide 16, DMePhe-DTrp-Phe-DTrp(N-butyl)-Leu-NH2] (H-[dNMeF][dW]F[dTrp(1-Bu)]L-NH2) | 1430 ± 140 | ~3 | 100 | 94.30 ± 0.20 | > 80 | 80.30 ± 0.32 | 68.47 ± 0.23 | 1010 ± 20 | ~3 | completely stable | – |
